In experiment [1] the target is Ox receptor. The experiment is described as follows: Ox receptor binding, [3H]-rilmenidine displacement in human brain homogenates. Particulars: for Ki / Selectivity Ox/I2: human brain homogenates; for Ki: Table 5, read-out: Receptor Affinities (nM) Ox; for Selectivity Ox/I2: >1 = selectivity for the Ox receptor.
Source text: Measurement of the affinity and selectivity of such compounds for the a2-adrenoceptor, I2-receptor and Ox receptor binding sites may be carried out by either of two procedures, i.e. ligand displacement studies in membranes of brain and kidney or by autoradiography of brain and kidney sections. In both cases the radioligand is tritiated rilmenidine ([^3H]-RIL).
Male WKY rats are stunned and decapitated. The brains are removed and the forebrain dissected free, then frozen over liquid nitrogen before being stored at −70° C. Human brain cortex samples are obtained within 28 hours of death and frozen over liquid nitrogen before being stored at −70° C. On the day of the measurement the cortex (human or rat) is homogenised in 20 vol ice-cold 50 mM Tris.HCl buffer (pH 7.4) using a Polytron tissue homogeniser. The homogenate is centrifuged at 37000×g for 10 min and the pellet resuspended in 20 vol of fresh buffer and recentrifuged. The pellet is then resuspended in 33 vol of 50 mM Tris.HCl buffer for use in binding assays.
After incubation for 30 min at 25° C., the membranes are recovered by filtration onto Whatman GF/B glass fibre filters presoaked in 1.0% polyethyleneimine. The filters are washed 3 times with cold assay buffer before measurement of bound radioactivity by scintillation counting.
In experiment [2] the target is I2-receptor. The experiment is described as follows: I2-receptor binding, [3H]-idazoxan displacement in human brain homogenates. The note with it: for Ki: human brain homogenates, Table 5, read-out: Receptor Affinities (nM) I2.
Experiment [3] concerns I2-receptor. The experiment is described as follows: I2-receptor binding, [3H]-idazoxan displacement in rat brain homogenates. Particulars: for affinity for the I2-receptor (in words): rat; for Ki: rat brain homogenates, Table 3, read-out: Receptor Affinities (nM) I2. As for the experimental part:
Male WKY rats are stunned and decapitated.
Brain membranes prepared as above, are incubated in the presence of [^3H]-methoxyidazoxan (52-57 Ci/mmol) 0.5 nM or [^3H]-idazoxan (43-45Ci/mmol) 1.6 nM in Tris.HCl buffer pH 7.4 for α2-adrenoceptor and I2-receptor binding respectively. Inhibition of binding is measured in the presence of increasing amounts of test compound (0.1 nM to 1 mM). Non-specific binding is estimated by addition of 10 μM phentolamine or 100 μM cirazoline respectively. Membrane bound radioactivity is isolated and measured as above by vacuum filtration, washing and scintillation counting. Data is analysed by the “RADLIG” program.

In experiment [4] the test system is α2-adrenoceptor. The experiment is described as follows: α2-adrenoceptor binding, [3H]-methoxyidazoxan displacement in rat brain homogenates. Particulars: for affinity for the α2-adrenoceptor (in words): rat; for Ki: rat brain homogenates, Table 4, read-out: Receptor Affinities (nM) α2.
Procedure: Male WKY rats are stunned and decapitated. The brains are removed and the forebrain dissected free, then frozen over liquid nitrogen before being stored at −70° C. […] On the day of the measurement the cortex (human or rat) is homogenised in 20 vol ice-cold 50 mM Tris.HCl buffer (pH 7.4) using a Polytron tissue homogeniser. The homogenate is centrifuged at 37000×g for 10 min and the pellet resuspended in 20 vol of fresh buffer and recentrifuged. The pellet is then resuspended in 33 vol of 50 mM Tris.HCl buffer for use in binding assays.
Experiment [5] concerns Ox receptor. The experiment is described as follows: Ox receptor binding, [3H]-rilmenidine displacement in rat brain homogenates. The note with it: for affinity for the Ox receptor (in words): rat; for Ki: read-out: Receptor Affinities (nM) Ox.
Procedure: Receptor Affinities and Selectivities of Selected Drugs for Ox receptors, α2-adrenoceptors and I2-receptors in Rat Brain Homogenates
In both cases the radioligand is tritiated rilmenidine ([^3H]-RIL).
Male WKY rats are stunned and decapitated. The brains are removed and the forebrain dissected free, then frozen over liquid nitrogen before being stored at −70° C. Human brain cortex samples are obtained within 28 hours of death and frozen over liquid nitrogen before being stored at −70° C. On the day of the measurement the cortex (human or rat) is homogenised in 20 vol ice-cold 50 mM Tris.HCl buffer (pH 7.4) using a Polytron tissue homogeniser. The homogenate is centrifuged at 37000×g for 10 min and the pellet resuspended in 20 vol of fresh buffer and recentrifuged. The pellet is then resuspended in 33 vol of 50 mM Tris.HCl buffer for use in binding assays. Where adrenaline is used in binding assays the buffer also contains 25 μM EDTA and 10 μM pargyline.
After incubation for 30 min at 25° C., the membranes are recovered by filtration onto Whatman GF/B glass fibre filters presoaked in 1.0% polyethyleneimine. The filters are washed 3 times with cold assay buffer before measurement of bound radioactivity by scintillation counting. The binding data are analysed by an iterative non-linear computerised curve fitting program “RADLIG” version 4.0 (McPherson, 1983).
In experiment [6] the test system is Ox receptor. The experiment is described as follows: Selectivity data of Table 1 (Ox over alpha2), tissue not stated. In kind it is binding. The note with it: tissue and species not stated. The text has this:
The term “selectivity” as used herein refers to the selectivity of a compound for the Ox receptor over another receptor in mammalian tissue containing said receptors. The selectivity is the reciprocal of the ratio of the affinities (in nM) for each receptor site. Preferably the tissue is human tissue.
The compounds prepared above are represented in Table 1 below together with selectivity data where available.

The mark [7] stands for this setting: human brains, compared with rat.
The mark [8] stands for this setting: rat brain homogenates, reciprocal of the ratio of affinities, >1 = more selective for Ox site.

Like-named read-outs stand apart in the source and are kept apart here.

The record followed here is patent publication US20050119461A1, “Novel receptor, and compounds which bind thereto” (THE UNIVERSITY OF MELBOURNE, priority 1997, published 2005).

Take `CCC1CCCC(C)C1NC1=NCCO1` (stereo not shown) [BAY-A6781]: in experiment [1], the Ki was found to be 215 nM and the “Selectivity Ox/I2” value is listed as 38. Also, the Ki in experiment [2] came out at 8250 nM.
Consider `COC1(C2=NCCN2)COc2ccccc2O1` (stereo not shown) [Methoxyidazoxan, 2-(2-methoxy-1,4-benzodioxan)-imidazoline)], for which the “affinity for the I2-receptor (in words)” value in experiment [3] is reported as “poor affinity (μM)”. Moreover, the Ki in experiment [3] is 24400 nM; in experiment [4], 1.9 nM; in experiment [1], 100000 nM; in experiment [2], above 100000 nM; in experiment [5] (rat brain homogenates, Table 3), 319000 nM; in experiment [5] (rat brain homogenates, Table 4) it was 319000 nM. In addition, the “affinity for the α2-adrenoceptor (in words)” value in experiment [4] is listed as “high affinity (nM)”. Moreover, the “Selectivity Ox/I2” value in experiment [1] is reported as 1; in experiment [5], 0.08. Besides, in experiment [5], the “affinity for the Ox receptor (in words)” value is “poor affinity (μM)”.
Turning to `C[C@H](NC1=NCCO1)c1cccc2ccccc12` [(S)-(−)-O506], in experiment [1], the Ki was 99 nM and the “Selectivity Ox/I2” value was 77. Further, the Ki in experiment [2] was 7580 nM.
The like results for `FC(F)(F)C(NC1=NCCO1)C1CC1` (single isomer, unassigned; (-)) [(−)-S8350] were, in that order, 199 nM, 32 and 7700 nM.
With `C1CCC(C(NC2=NCCO2)C2CCCCC2)CC1` [Compound O503], the Ki in experiment [3] was 3800 nM; in experiment [4] it was 640 nM; in experiment [1], 70 nM; in experiment [2], 4800 nM; in experiment [5] (rat brain homogenates, Table 3), 117 nM; in experiment [5] (rat brain homogenates, Table 4), 117 nM. The entries for the “Selectivity Ox/I2” value in experiment [1] and in experiment [5] were 69 and 32, respectively. Further, in experiment [5], the “Selectivity Ox/α2” value is reported as 5.5.
Consider `C1COC(NC(C2CC2)C2CC2)=N1` [Rilmenidine], for which the “affinity for the I2-receptor (in words)” value in experiment [3] is “high affinity (nM)”; in experiment [2] (setting [7]) it was “lower affinity”. Also, the Ki in experiment [3] came to 36 nM; in experiment [4], 410 nM; in experiment [1] it was 396 nM; in experiment [2] it was 5220 nM; in experiment [5] (rat brain homogenates, Table 3), 15 nM; in experiment [5] (rat brain homogenates, Table 4) it was 15 nM. Moreover, the entries for the “Selectivity Ox/I2” value in experiment [1] and in experiment [5] (setting [8]) were 13 and 2.4, respectively. Further, the “affinity for the Ox receptor (in words)” value in experiment [1] (setting [7]) is given as “lower affinity”; in experiment [5], “high affinity (nM)”. Besides, in experiment [5] (setting [8]), the “Selectivity Ox/α2” value is reported as 27.
As for `C[C@H](NC1=NCCO1)C1CCCCC1` [(S)-(+)-O504, (S)-(+)-2-(1-Cyclohexylethylamino)-oxazoline], the Ki in experiment [3] is 707 nM; in experiment [4], 30 nM; in experiment [1], 180 nM; in experiment [2] it was 2190 nM; in experiment [5] (rat brain homogenates, Table 3), 106 nM; in experiment [5] (rat brain homogenates, Table 4), 20 nM. The “Selectivity Ox/I2” value turned out to be 12 in experiment [1] and 6.7 in experiment [5]. The “Selectivity Ox/α2” value in experiment [5] came to 1.5.
`C[C@@H](NC1=NCCO1)C1CCCCC1` [(R)-(−)-O504, (R-(−)-2-(1-Cyclohexylethylamino)-oxazoline)]: the Ki in experiment [3] amounted to 56 nM; in experiment [4], 590 nM; in experiment [1], 300 nM; in experiment [2], 2700 nM; in experiment [5] (rat brain homogenates, Table 3) it was 31 nM; in experiment [5] (rat brain homogenates, Table 4) it was 32 nM. The “Selectivity Ox/I2” value in experiment [1] was determined as 9; in experiment [5] it was 1.8. The “Selectivity Ox/α2” value in experiment [5] was found to be 18.
Take `c1ccc(C(NC2=NCCO2)c2ccccc2)cc1` [Compound O502]: the Ki was 1900 nM in experiment [3]; 380 nM in experiment [4]; 234 nM in experiment [1]; 686 nM in experiment [2]; 160 nM in experiment [5] (rat brain homogenates, Table 3); 160 nM in experiment [5] (rat brain homogenates, Table 4). The “Selectivity Ox/I2” value came to 3 in experiment [1] and 12 in experiment [5]. Further, in experiment [5], the “Selectivity Ox/α2” value was determined as 2.4.
`Oc1ccc(CCNC2=NCCO2)cc1` [Compound O508, 2-(4-hydroxyphenyl)ethylaminooxazoline]: in experiment [6], the “Selectivity Ox/apha2” value amounted to 100.
Take `c1ccc2nc(C3=NCCN3)ccc2c1` [BU-224, 2-(4,5-dihydroimidaz-2-yl)quinoline]: the “affinity for the I2-receptor (in words)” value in experiment [3] is listed as “high affinity (nM)”. Besides, the Ki is 0.9 nM in experiment [3]; 5480 nM in experiment [4]; 9580 nM in experiment [1]; 2.2 nM in experiment [2]; above 100000 nM in experiment [5] (rat brain homogenates, Table 3); above 100000 nM in experiment [5] (rat brain homogenates, Table 4). Besides, in experiment [4], the “affinity for the α2-adrenoceptor (in words)” value was “poor affinity (μM)”. Also, the “Selectivity Ox/I2” value in experiment [1] is 0.0002. Further, the “affinity for the Ox receptor (in words)” value in experiment [5] is given as “poor (μM) affinity”. Moreover, the “Selectivity Ox/α2” value in experiment [5] (setting [8]) is given as below 0.1.
Regarding `CC(CNC1=NCCO1)c1ccc(OCc2ccccc2)cc1` (stereo not shown) [Compound O509, 2-(4-benzyloxyphenyl)propylaminooxazoline], in experiment [6], the “Selectivity Ox/apha2” value was 2.0.
`CCC1CCCC(CC)C1NC1=NCCO1` (stereo not shown) [Compound O501]: the Ki worked out at 6900 nM in experiment [3]; 210 nM in experiment [4]; 38 nM in experiment [1]; 9100 nM in experiment [2]; 18 nM in experiment [5] (rat brain homogenates, Table 3); 18 nM in experiment [5] (rat brain homogenates, Table 4). In addition, the “Selectivity Ox/I2” value in experiment [1] was 239; in experiment [5], 383. Also, the “Selectivity Ox/α2” value in experiment [5] was found to be 12.
On to `c1ccc2c(c1)OCC(C1=NCCN1)O2` (stereo not shown) [Idazoxan, 2-(1,4-benzodioxan)-imidazoline], for which the “affinity for the I2-receptor (in words)” value in experiment [3] is listed as “high affinity (nM)”. Moreover, the Ki in experiment [3] worked out at 2.3 nM; in experiment [4], 15.6 nM; in experiment [1], 6060 nM; in experiment [2], 4.8 nM; in experiment [5] (rat brain homogenates, Table 3), 62300 nM; in experiment [5] (rat brain homogenates, Table 4), 62300 nM. Further, the “affinity for the α2-adrenoceptor (in words)” value in experiment [4] is “high affinity (nM)”. In addition, the “Selectivity Ox/I2” value in experiment [1] amounted to 0.0008; in experiment [5] (setting [8]) it was 0.00004. The “affinity for the Ox receptor (in words)” value in experiment [5] is reported as “poor (μM) affinity”. Also, the “Selectivity Ox/α2” value in experiment [5] (setting [8]) came out at 0.0003.
For `FC(F)(F)C(NC1=NCCO1)C1CC1` (single isomer, unassigned; (+)) [(+)-S8349], in experiment [1], the Ki stood at 268 nM and the “Selectivity Ox/I2” value is 49. Further, the Ki in experiment [2] worked out at 13000 nM.
